Measurements: patent US20210269859A1, “PATHOGEN AND ANT[…]” (priority 2014, published 2021)
Like-named read-outs stand apart in the source and are kept apart here.

Key:
Assay type in all cases: cell-based
[1] = test system: kanamycin resistant E. coli K12 MG1655 strain; details: 100 μl
Description: (§1) A single E. coli bacterial colony (E. coli K12 MG1655) known to be resistant to kanamycin and a single E. coli bacterial colony (E. coli K12 MG1655) known to be resistant to carbenicillin were separately cultured in LB media for 12-15 hrs until the bacterial cells were in mid-log phase (about 10^8 cells/nil). The culture was then serial diluted to 5×10^2, 5×10^3, 5×10^4, and 5×10^5 cells in LB media containing either 50 μg/ml kanamycin or 100 μg/ml carbenicillin. Resazurin was added to each dilution at a final concentration of 20, 40, or 80 μM in a total reaction volume of 100 μl. Each diluted culture was cultured at 37° C. and fluorescence was measured at wavelength 590 nm at 0, 1, 2, 3, 4, 5, and 6 hrs from the start of culture in the presence of the antibiotic.

[2] = test system: carbenicillin resistant E. coli K12 MG1655 strain; assay: Resazurin reduction method, 100 μl total reaction volume
Description: as §1

[3] = test system: kanamycin resistant E. coli K12 MG1655 strain; details: 10 μl
Description: as §1
The resazurin reduction method was repeated using the kanamycin resistant strain but in a 10 μl total reaction volume and with final cell concentrations of 5×10^1, 5×10^2, 5×10^3, and 5×10^4 cells per reaction. The same final resazurin concentrations (20, 40, or 80 μM), kanamycin concentration, and carbenicillin concentration were used as above. Fluorescence was measured at wavelength 590 nm at 0, 1, 2, 3, 4, 5, 6, and 7 hrs from the start of culture in the presence of the antibiotic.

[4] = 50 μg/ml kanamycin or 100 μg/ml carbenicillin, 5×10^2 to 5×10^5 cells, resazurin 20, 40 or 80 μM, 37° C., 0-6 hrs
[5] = higher initial cell concentrations (5×10^3, 5×10^4, 5×10^5 cells)
[6] = lower initial cell concentration (5×10^2 cells)

| SMILES | growth of the strain in the presence of the antibiotic (fluorescence at 590 nm) [1, 4] | growth of the strain in the presence of the antibiotic (fluorescence at 590 nm) [2, 4] | time after initiating the culture at which resistance to the antibiotic could be detected [2, 5] [h] | time after initiating the culture at which resistance to the antibiotic began showing [2, 6] | growth of the strain in the presence of the antibiotic (fluorescence at 590 nm) ([3]; same kanamycin and carbenicillin concentrations, 5×10^1 to 5×10^4 cells per reaction, resazurin 20, 40 or 80 μM, 0-7 hrs) | time after initiating the culture at which resistance to the antibiotic could be detected [1, 5] [h] | time after initiating the culture at which resistance to the antibiotic began showing [1, 6] | time after initiating the culture at which resistance to the antibiotic could be detected ([3]; higher initial cell concentrations (5×10^2, 5×10^3, 5×10^4 cells)) [h] | time after initiating the culture at which resistance to the antibiotic began showing ([3]; lower initial cell concentration (5×10^1 cells)) |
| --- | --- | --- | --- | --- | --- | --- | --- | --- | --- |
| CC1(C)S[C@@H]2[C@H](NC(=O)C(C(=O)O)c3ccccc3)C(=O)N2[C@H]1C(=O)O (stereo partly drawn) [carbenicillin] | slow or no growth | growth | 1 to 5 | about 6 hrs | slow or no growth | – | – | – | – |
| NC[C@H]1O[C@H](O[C@H]2[C@H](O)[C@@H](O[C@H]3O[C@H](CO)[C@@H](O)[C@H](N)[C@H]3O)[C@H](N)C[C@@H]2N)[C@H](O)[C@@H](O)[C@@H]1O [kanamycin] | – | – | – | – | – | 1 to 5 | about 6 hrs | 1 to 6 | about 7 hrs |
